Assay results as given in patent US20170274174A1, “SYSTEM AND METHOD FOR ADMINISTERING, MONITORING AND CONTROLLING BIOMIMETIC SLEEP” (THE GENERAL HOSPITAL CORPORATION, priority 2014, published 2017).
Read-outs that look alike come from different tables or passages of the source.

## Cc1cccc([C@H](C)c2cnc[nH]2)c1C [dexmedetomidine]
high-dose: about 0.9 to about 1.1 mcg/kg loading, about 0.80 to about 0.9 mcg/kg/hr maintenance, FIGS. 4A-4B
  EEG spectral dynamics / sleep state induced: only slow-waves being induced
low-dose: about 0.9 to about 1.1 mcg/kg loading, about 0.60 to about 0.7 mcg/kg/hr maintenance, FIGS. 3A-3B
  EEG spectral dynamics / sleep state induced: spindles and slow-waves that can closely resemble stage N2 NREM sleep
